Reference: the NIST ThermoML archive (doi:10.1021/je301283e)

Details: Vibrating tube method

CCCCCCCCCCCCCCCC [hexadecane]
mass density [kg/m3], Liquid
Details	313.15 K	333.15 K	353.15 K	373.15 K	393.15 K
340 kPa	759.52	746.8	736.2	723.1	710
690 kPa	759.83	747.1	736.4	723.3	710.3
1030 kPa	760.08	747.4	736.6	723.6	710.6
1380 kPa	760.33	747.7	736.9	723.8	710.9
1720 kPa	760.65	748	737.1	724	711.1
2070 kPa	760.88	748.2	737.4	724.3	711.4
2410 kPa	761.08	748.5	737.7	724.6	711.7
2760 kPa	761.33	748.7	738	724.9	712
3100 kPa	761.65	749	738.3	725.1	712.2
3450 kPa	761.83	749.2	738.7	725.4	712.3
3800 kPa	762.08	749.5	739.1	725.6	712.5
4140 kPa	762.33	749.8	739.3	725.9	712.8
4480 kPa	762.49	750	739.5	726.1	713
4830 kPa	762.83	750.2	739.8	726.4	713.3
5170 kPa	763.08	750.5	740	726.7	713.5
5510 kPa	763.33	750.7	740.2	726.9	713.8
5860 kPa	763.58	751	740.4	727.2	714
6200 kPa	763.83	751.2	740.5	727.5	714.3
6550 kPa	764.08	751.4	740.7	727.8	714.6
6890 kPa	764.33	751.6	741	728.1	714.9
7240 kPa	764.65	752	741.2	728.4	715.1
7580 kPa	764.83	752.4	741.5	728.5	715.3
7930 kPa	765.08	752.6	741.7	728.9	715.5
8270 kPa	765.33	752.8	742	729.4	715.8
8620 kPa	765.58	753	742.2	729.9	716
8960 kPa	765.74	753.2	742.5	730.2	716.3
9310 kPa	765.99	753.5	742.7	730.6	716.6
9650 kPa	766.24	753.8	742.9	730.8	716.8
10000 kPa	766.49	754	743.1	731	717.1
10340 kPa	766.74	754.3	743.5	731.4	717.4
10690 kPa	766.98	754.5	743.9	731.6	717.6
11030 kPa	767.22	754.8	744.1	731.9	717.9
11380 kPa	767.48	755	744.3	732.1	718.1

O=C=O [carbon dioxide]
mass density [kg/m3], Fluid (supercritical or subcritical phases)
Details	313.15 K	333.15 K	353.15 K	373.15 K	393.15 K
340 kPa	8.2	7.7	7.4	6.5	5.7
690 kPa	15.1	13.4	13.5	10.9	9.5
1030 kPa	21.4	19.9	18.8	17.1	16.3
1380 kPa	26.7	25.1	24.6	23.2	22.1
1720 kPa	34.2	31.9	31.4	28.6	26.9
2070 kPa	38.6	38.4	36.1	32.7	32
2410 kPa	48.4	44.1	41.9	39.2	37
2760 kPa	56.7	51.2	48	44.8	–
3100 kPa	64.1	59.1	54.1	50.3	47.4
3450 kPa	72.9	65.1	61.4	56.1	52.9
3800 kPa	80.9	73.1	67.2	63.2	58.2
4140 kPa	87.5	79.7	73.8	67.9	63.6
4480 kPa	99.4	87.9	80.5	73.1	69.2
4830 kPa	109.8	96.5	88	80	74.7
5170 kPa	122	105.1	94.9	86.2	80.4
5510 kPa	134	114.2	102.4	93	86.2
5860 kPa	145.4	123.8	110.2	99.2	92.4
6200 kPa	158	133.4	118	106	98.1
6550 kPa	175.1	144.2	126.2	112.9	104.7
6890 kPa	194.5	154.3	134.4	120	110.5
7240 kPa	218.9	166.4	143.4	127	113.6
7580 kPa	239.9	178.8	152.1	135.4	123.1
7930 kPa	272.8	190.1	161.4	143.1	129.9
8270 kPa	315.6	205.2	171.1	151.1	136.2
8620 kPa	383.1	219.5	180.8	158.1	142.9
8960 kPa	478.5	235.1	191.1	166.1	149.4
9310 kPa	554.1	252.4	201.8	174.4	156.2
9650 kPa	599.1	271	211.9	182.7	163.2
10000 kPa	630	291.4	223.5	191.9	170.4
10340 kPa	649.1	313.6	235	199.4	176.4
10690 kPa	667.8	337	247.4	208.4	183.2
11030 kPa	682.9	361.9	259.8	217.3	191.1
11380 kPa	696.2	388	272.4	223.2	198.2
11720 kPa	708	411.1	283.9	233.1	203.9
12070 kPa	718.3	437.9	298.3	242.8	210.8
12410 kPa	727.4	463.8	312.1	252.7	218
12750 kPa	737.3	489.2	328.4	262.8	226.3
13100 kPa	744.1	510.1	342	272.5	234
13440 kPa	751	530.7	356.7	283.1	242.1
13790 kPa	757.9	549.9	372.8	293.1	250.9
14130 kPa	765.3	567.7	388.6	304.7	258
14480 kPa	770	582	403	314.9	266.4
14820 kPa	775.9	596	417.8	325	275
15160 kPa	781.5	609.4	433	336.1	283.9
15510 kPa	786.4	621	447.5	347.6	291.1
15860 kPa	791.7	627.4	461	358.1	300.7
16200 kPa	796.1	642.1	475	368.7	308.4
16550 kPa	801.2	651.8	488.1	379.8	316.8
16900 kPa	805.8	661.7	501	390.2	325.1
17240 kPa	809.8	669.7	513	400.4	333.1
